Columns and labels:
[1] = target: T1, GES-1 (Guiana extended-spectrum β-lactamase 1) (Klebsiella pneumoniae, UniProt Q9KJY7); test: ([…] Å), mass spectrometry; IC50 by nitrocefin hydrolysis, […] min pre-incubation; format: biochemical
T1 construct: pOPIN-F, expressed in SoluBL21 (DE3) E. coli

[2] = target: T1, GES-1 (Guiana extended-spectrum β-lactamase 1); test: ([…] Å; […] Da aldehyde fragment on Ser70), mass spectrometry; IC50 by nitrocefin hydrolysis, […] min pre-incubation; format: biochemical

T1 sequence (Q9KJY7 18-287): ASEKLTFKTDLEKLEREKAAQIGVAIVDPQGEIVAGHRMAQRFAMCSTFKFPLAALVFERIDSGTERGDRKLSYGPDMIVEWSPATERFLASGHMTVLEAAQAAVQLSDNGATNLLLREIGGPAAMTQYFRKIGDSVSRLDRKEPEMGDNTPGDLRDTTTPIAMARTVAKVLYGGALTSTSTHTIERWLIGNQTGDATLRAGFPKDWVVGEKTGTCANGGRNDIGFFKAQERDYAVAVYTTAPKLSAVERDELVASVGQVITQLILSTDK

| Compound | IC50 [1] [nM] | IC50 [2] [nM] |
| --- | --- | --- |
| C[n+]1ccn(C[C@@]2(C)[C@H](C(=O)O)N3C(=O)C[C@H]3S2(=O)=O)n1 [enmetazobactam] | 107 |  |
| C[C@]1(Cn2ccnn2)[C@H](C(=O)O)N2C(=O)C[C@H]2S1(=O)=O [tazobactam] |  | 444 |

From paper PMC12643063, “Mechanistic basis for inhibition of the extended‐spectrum β‐lactamase GES‐1 by enmetazobactam and tazobactam” (Febs Letters, 2025)
